This note sets out measurements from patent publication US11071731B2, “Allosteric modulators of the mu opioid receptor” (Chiromics, LLC, priority 2017, dated 2021).

As usually defined, the EC50 is the concentration at which the effect is half-maximal.

Assay [1] addresses T1, mu opioid receptor (MOR) (Homo sapiens, UniProt P35372). Kind of assay: PathHunter β-arrestin recruitment assay, PAM mode with EC20 endomorphin-1. Format: cell-based. As to conditions: for EC50: read-out: β-arr. EC50. A digest of the protocol:
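β-Arrestin recruitment to the receptor was tracked by chemiluminescent β-galactosidase activity from complementing fragments (ED on receptor, EA on β-arrestin). Per-compound outputs were EC50 and percent maximal response.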

The target of assay [2] is T1, mu opioid receptor (MOR). Kind of assay: Hit Hunter cAMP signaling assay (adenylyl cyclase inhibition), PAM mode with EC20 endomorphin-1. It counts as cell-based.
The mark [3] stands for this setting: maximal response for β-arrestin recruitment.
The mark [4] stands for this setting: adenylyl cyclase inhibition, read-out: cAMP EC50.
Setting [5] is: maximal response for adenylyl cyclase inhibition.
[6] abbreviates: cAMP EC50, adenylyl cyclase inhibition.

T1 sequence (P35372 whole entry, the tested form may be a part): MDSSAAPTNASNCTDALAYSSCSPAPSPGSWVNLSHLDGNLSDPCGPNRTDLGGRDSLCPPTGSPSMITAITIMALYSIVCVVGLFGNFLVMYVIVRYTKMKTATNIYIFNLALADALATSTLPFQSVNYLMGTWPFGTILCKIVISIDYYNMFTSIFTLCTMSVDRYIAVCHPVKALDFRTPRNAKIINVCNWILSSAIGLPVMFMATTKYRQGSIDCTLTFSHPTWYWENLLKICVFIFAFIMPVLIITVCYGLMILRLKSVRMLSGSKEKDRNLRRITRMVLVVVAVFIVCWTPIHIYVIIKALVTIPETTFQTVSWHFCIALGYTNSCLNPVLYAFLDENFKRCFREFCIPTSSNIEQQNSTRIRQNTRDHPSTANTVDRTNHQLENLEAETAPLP

Consider `O=S(=O)(c1ccc(Cl)cc1)N1CCCCC1c1cncc(F)c1` (racemic) [compound 82], for which the “β-arr Max. Resp.” value at mu opioid receptor (MOR) [1] (setting [3]) is on record as “D (D represents a maximal response of < 40%)”. Further, the EC50 on mu opioid receptor (MOR) [1] (β-arrestin recruitment) and on mu opioid receptor (MOR) [2] (setting [4]) was over 2100 nM each time. In addition, at mu opioid receptor (MOR) [2] (setting [5]), the “cAMP Max. Resp.” value is “D (D represents a maximal response of < 40%)”.

With `COc1ccc(C2C(C)CCCN2c2nc(Cl)ncc2F)cc1Br` (stereo not drawn) [compound 249], the “β-arr Max. Resp.” value on mu opioid receptor (MOR) [1] (setting [3]) is given as “F (F represents a maximal response of > 60%)”. The EC50 at mu opioid receptor (MOR) [1] (β-arrestin recruitment) and on mu opioid receptor (MOR) [2] (setting [4]) was over 2100 nM each time. The “cAMP Max. Resp.” value on mu opioid receptor (MOR) [2] (setting [5]) is recorded as “E (E represents a maximal response of 40-60%)”.

Turning to `COc1ccc(N2CCCCC2c2cccc(C(F)(F)F)n2)cc1` (stereo not drawn) [compound 474], the “β-arr Max. Resp.” value on mu opioid receptor (MOR) [1] (maximal response, β-arrestin recruitment) was “D (D represents a maximal response of < 40%)”. Besides, the EC50 at mu opioid receptor (MOR) [1] (β-arrestin recruitment) and on mu opioid receptor (MOR) [2] (setting [4]) was over 2100 nM throughout. Also, at mu opioid receptor (MOR) [2] (maximal response, adenylyl cyclase inhibition), the “cAMP Max. Resp.” value is reported as “D (D represents a maximal response of < 40%)”.

As to `Cc1cc(C2CCCCN2S(=O)(=O)c2ccc(Cl)cc2)ccn1` (racemic) [compound 77], at mu opioid receptor (MOR) [1] (setting [3]), the “β-arr Max. Resp.” value is given as “F (F represents a maximal response of > 60%)”. The EC50 at mu opioid receptor (MOR) [1] (β-arrestin recruitment) and on mu opioid receptor (MOR) [2] (setting [4]) was over 2100 nM in each case. The “cAMP Max. Resp.” value on mu opioid receptor (MOR) [2] (setting [5]) was “D (D represents a maximal response of < 40%)”.

As to `Fc1cnc(Cl)nc1N1CCCCC1c1ccnc(C(F)(F)F)c1` (stereo not drawn) [compound 410], the “β-arr Max. Resp.” value on mu opioid receptor (MOR) [1] (setting [3]) is listed as “D (D represents a maximal response of < 40%)”. Besides, the EC50 on mu opioid receptor (MOR) [1] (β-arrestin recruitment) and at mu opioid receptor (MOR) [2] (setting [6]) was under 700 nM in each case. In addition, the “cAMP Max. Resp.” value on mu opioid receptor (MOR) [2] (setting [5]) was “D (D represents a maximal response of < 40%)”.

Regarding `Fc1ccc(C2CCCCN2c2nc(Cl)ncc2F)cc1Cl` (stereo not drawn) [compound 121], at mu opioid receptor (MOR) [1] (setting [3]), the “β-arr Max. Resp.” value was “F (F represents a maximal response of > 60%)”. Besides, the EC50 on mu opioid receptor (MOR) [1] (β-arrestin recruitment) and on mu opioid receptor (MOR) [2] (setting [6]) was under 700 nM each time. Further, at mu opioid receptor (MOR) [2] (setting [5]), the “cAMP Max. Resp.” value is “E (E represents a maximal response of 40-60%)”.

As for `Fc1cnc(Cl)nc1N1CCCCC1c1cnc2cccnn12` (stereo not drawn) [compound 337], the “β-arr Max. Resp.” value at mu opioid receptor (MOR) [1] (setting [3]) is listed as “D (D represents a maximal response of < 40%)”. Further, the concentration for a half-maximal effect (EC50) on mu opioid receptor (MOR) [1] (β-arrestin recruitment) and on mu opioid receptor (MOR) [2] (setting [6]) was under 700 nM throughout. Also, at mu opioid receptor (MOR) [2] (setting [5]), the “cAMP Max. Resp.” value is “D (D represents a maximal response of < 40%)”.

Consider `Fc1cc(C2COCCN2Cc2cc(Cl)ccc2F)cc(C(F)(F)F)c1` (racemic) [Compound 195], for which the “β-arr Max. Resp.” value at mu opioid receptor (MOR) [1] (setting [3]) is “F (F represents a maximal response of > 60%)”. Besides, the EC50 at mu opioid receptor (MOR) [1] (β-arrestin recruitment) was 700 to 2100 nM; at mu opioid receptor (MOR) [2] (setting [4]), over 2100 nM. The “cAMP Max. Resp.” value on mu opioid receptor (MOR) [2] (setting [5]) is given as “D (D represents a maximal response of < 40%)”.

In the case of `CC1CCN(S(=O)(=O)c2ccc(Cl)cc2)C1c1ccc2c(c1)OCO2` (mixture of isomers) [Compound 96], the “β-arr Max. Resp.” value on mu opioid receptor (MOR) [1] (setting [3]) was “F (F represents a maximal response of > 60%)”. The EC50 at mu opioid receptor (MOR) [1] (β-arrestin recruitment) and on mu opioid receptor (MOR) [2] (setting [4]) was over 2100 nM in each case. In addition, at mu opioid receptor (MOR) [2] (setting [5]), the “cAMP Max. Resp.” value is “D (D represents a maximal response of < 40%)”.

For `Fc1ccc(C2C(F)CCCN2c2nc(Cl)ncc2F)cc1Br` (stereo not drawn) [compound 210], the “β-arr Max. Resp.” value on mu opioid receptor (MOR) [1] (setting [3]) is given as “F (F represents a maximal response of > 60%)”. The EC50 at mu opioid receptor (MOR) [1] (β-arrestin recruitment) is over 2100 nM; on mu opioid receptor (MOR) [2] (setting [6]) it was 700 to 2100 nM. At mu opioid receptor (MOR) [2] (setting [5]), the “cAMP Max. Resp.” value is “E (E represents a maximal response of 40-60%)”.

As to `O=S(=O)(c1cccc(Cl)c1)N1CCCCC1c1cccc(C(F)(F)F)c1` (stereo not drawn) [Compound 21], the “β-arr Max. Resp.” value on mu opioid receptor (MOR) [1] (setting [3]) is recorded as “F (F represents a maximal response of > 60%)”. Besides, the EC50 on mu opioid receptor (MOR) [1] (β-arrestin recruitment) and at mu opioid receptor (MOR) [2] (setting [4]) was over 2100 nM each time. Moreover, the “cAMP Max. Resp.” value at mu opioid receptor (MOR) [2] (setting [5]) was “F (F represents a maximal response of > 60%)”.

With `O=S(=O)(c1ccc(Cl)cc1)N1C2CCC(C2)C1c1ccc(F)c(Br)c1` (stereo not drawn) [Compound 178], the “β-arr Max. Resp.” value at mu opioid receptor (MOR) [1] (setting [3]) is on record as “F (F represents a maximal response of > 60%)”. In addition, the EC50 at mu opioid receptor (MOR) [1] (β-arrestin recruitment) is under 700 nM; on mu opioid receptor (MOR) [2] (setting [4]), 700 to 2100 nM. In addition, the “cAMP Max. Resp.” value at mu opioid receptor (MOR) [2] (setting [5]) is “D (D represents a maximal response of < 40%)”.

For the molecule `[2H]C1(c2ccc(F)c(Br)c2)C(F)CCCN1S(=O)(=O)c1cccc(Cl)c1` (stereo not drawn) [Compound 32], at mu opioid receptor (MOR) [1] (setting [3]), the “β-arr Max. Resp.” value is listed as “F (F represents a maximal response of > 60%)”. Besides, the “cAMP Max. Resp.” value on mu opioid receptor (MOR) [2] (setting [5]) is “D (D represents a maximal response of < 40%)”.

In the case of `COc1ccc(C2CCCCN2c2nc(Cl)ncc2C)cc1Br` (stereo not drawn) [compound 234], on mu opioid receptor (MOR) [1] (setting [3]), the “β-arr Max. Resp.” value is given as “F (F represents a maximal response of > 60%)”. For the same molecule, the EC50 on mu opioid receptor (MOR) [1] (β-arrestin recruitment) and on mu opioid receptor (MOR) [2] (setting [6]) was over 2100 nM each time. For the same molecule, the “cAMP Max. Resp.” value at mu opioid receptor (MOR) [2] (setting [5]) is “F (F represents a maximal response of > 60%)”.
